Assay results as given in the NIST ThermoML archive (doi:10.1021/je0496995).

Assay: mn = molality of the nth substance listed, in mol/kg
Details: Liquid; for viscosity: 101.3 kPa, Capillary tube (Ostwald / Ubbelohde) method; for mass density: 101.33 kPa, Pycnometric method

O=C(O)c1cccnc1 [3-carboxylpyridine] + Cc1cccnc1
Details	mass density [kg/m3]	viscosity [mPa·s]
293.15 K, m1 = 0.02469	956.7	0.9504
293.15 K, m1 = 0.107	959.5	0.9659
293.15 K, m1 = 0.2134	964.1	0.9908
293.15 K, m1 = 0.319	969.5	1.015
293.15 K, m1 = 0.424	975.8	1.05
293.15 K, m1 = 0.5284	983	1.107
303.15 K, m1 = 0.02469	947.3	0.8363
303.15 K, m1 = 0.107	950.1	0.8514
303.15 K, m1 = 0.2134	954.6	0.8764
303.15 K, m1 = 0.319	960	0.9018
303.15 K, m1 = 0.424	966.4	0.9368
303.15 K, m1 = 0.5284	973.5	0.9891
313.15 K, m1 = 0.02469	938.4	0.7399
313.15 K, m1 = 0.107	941.2	0.7553
313.15 K, m1 = 0.2134	945.7	0.7804
313.15 K, m1 = 0.319	951	0.8048
313.15 K, m1 = 0.424	957.5	0.8396
313.15 K, m1 = 0.5284	964.7	0.8961
323.15 K, m1 = 0.02469	929	0.661
323.15 K, m1 = 0.107	931.8	0.6762
323.15 K, m1 = 0.2134	936.3	0.7014
323.15 K, m1 = 0.319	941.5	0.7265
323.15 K, m1 = 0.424	947.8	0.7613
323.15 K, m1 = 0.5284	955.2	0.8173
333.15 K, m1 = 0.02469	920	0.5981
333.15 K, m1 = 0.107	922.8	0.6134
333.15 K, m1 = 0.2134	927.2	0.6381
333.15 K, m1 = 0.319	932.5	0.6632
333.15 K, m1 = 0.424	938.7	0.6983
333.15 K, m1 = 0.5284	946.2	0.7541
343.15 K, m1 = 0.02469	911	0.5434
343.15 K, m1 = 0.107	913.8	0.5594
343.15 K, m1 = 0.2134	918.2	0.5833
343.15 K, m1 = 0.319	923.5	0.6086
343.15 K, m1 = 0.424	929.7	0.6431
343.15 K, m1 = 0.5284	937.2	0.6997
